From ChEMBL document CHEMBL5380807, “Imidazo[1,2-a]Pyridine Derivatives as Novel Dual-Target Inhibitors of ABCB1 and ABCG2 for Reversing Multidrug Resistance” (J Med Chem, 2023)
The source made the active and inactive calls. The calls are words filed in the database; no cut-off is given here.

Assays:
[1] = Cytotoxicity against human K562 cells assessed as decrease in cell survival rate incubated for 72 hrs by MTS assay; assay type: toxicity, cell-based
[2] = Cytotoxicity against human K562/A02 cells overexpressing ABCB1 assessed as decrease in cell survival rate incubated for 72 hrs by MTS assay; assay type: toxicity, cell-based
[3] = test system: K562; experiment: Reversal of ABCB1 mediated adriamycin resistance in human K562 assessed as decrease in survival rate at 1.25 to 5 uM preincubated for 1 hrs followed by adriamycin addition and measured after 72 hrs by MTS assay; assay type: functional, cell-based; conditions: dose 1.25-5 µM, time 73.0 hrs
[4] = test system: K562/A02; experiment: Reversal of ABCB1 mediated adriamycin resistance in human K562/A02 overexpressing ABCB1 assessed as decrease in survival rate at 1.25 to 5 uM preincubated for 1 hrs followed by adriamycin addition and measured after 72 hrs by MTS assay; assay type: functional, cell-based; conditions: dose 1.25-5 µM, time 73.0 hrs
[5] = test system: K562/A02; experiment: Reversal of ABCB1 mediated adriamycin resistance in human K562/A02 overexpressing ABCB1 assessed as decrease in survival rate at 5 uM preincubated for 1 hrs followed by adriamycin addition and measured after 72 hrs by MTS assay; assay type: functional
[6] = Cytotoxicity against human HEK293 cells assessed as reduction in cell viability incubated for 72 hrs by SRB assay; assay type: toxicity, cell-based
[7] = Cytotoxicity against human HEK293 cells expressing ABCG2 assessed as reduction in cell viability incubated for 72 hrs by SRB assay; assay type: toxicity, cell-based
[8] = test system: HEK293; experiment: Reversal of ABCG2 mediated mitoxantrone resistance in human HEK293 assessed as decrease in survival rate at 1.25 to 5 uM preincubated for 1 hrs followed by mitoxantrone addition and measured after 72 hrs by SRB assay; assay type: functional, cell-based; conditions: dose 1.25-5 µM, time 73.0 hrs
[9] = test system: HEK293; experiment: Reversal of ABCG2 mediated mitoxantrone resistance in human HEK293 overexpressing ABCG2 assessed as decrease in survival rate at 1.25 to 5 uM preincubated for 1 hrs followed by mitoxantrone addition and measured after 72 hrs by SRB assay; assay type: functional, cell-based; conditions: dose 1.25-5 µM, time 73.0 hrs
[10] = test system: K562/A02; experiment: Reversal of ABCB1 mediated multidrug resistance in human K562/A02 cells overexpressing ABCB1 assessed as decrease in survival rate at 1.25 to 5 uM preincubated for 1 hrs followed by paclitaxel addition and measured after 72 hrs by MTS assay; assay type: functional, cell-based; conditions: dose 1.25-5 µM, time 73.0 hrs
[11] = test system: K562/A02; experiment: Reversal of ABCB1 mediated multidrug resistance in human K562/A02 cells overexpressing ABCB1 assessed as decrease in survival rate at 1.25 to 5 uM preincubated for 1 hrs followed by vincristine addition and measured after 72 hrs by MTS assay; assay type: functional, cell-based; conditions: dose 1.25-5 µM, time 73.0 hrs
[12] = test system: K562/A02; experiment: Reversal of ABCB1 mediated multidrug resistance in human K562/A02 cells overexpressing ABCB1 assessed as decrease in survival rate at 1.25 uM preincubated for 1 hrs followed by vincristine addition and measured after 72 hrs by MTS assay; assay type: functional; conditions: time 73 hrs
[13] = test system: HEK293; experiment: Reversal of ABCG2 mediated multidrug resistance in human HEK293 overexpressing ABCG2 assessed as decrease in survival rate at 1.25 to 5 uM preincubated for 1 hrs followed by adriamycin addition and measured after 72 hrs by SRB assay; assay type: functional, cell-based; conditions: dose 1.25-5 µM, time 73.0 hrs
[14] = test system: HEK293; experiment: Reversal of ABCG2 mediated multidrug resistance in human HEK293 overexpressing ABCG2 assessed as decrease in survival rate at 1.25 to 5 uM preincubated for 1 hrs followed by topotecan addition and measured after 72 hrs by SRB assay; assay type: functional, cell-based; conditions: dose 1.25-5 µM, time 73.0 hrs
[15] = test system: K562/A02; experiment: Reversal of ABCB1 mediated multidrug resistance in human K562/A02 cells overexpressing ABCB1 assessed as change in ABCB1 protein expression level at 2.5 uM incubated for 72 hrs by Western blot analysis; assay type: functional, cell-based
[16] = test system: HEK293; experiment: Reversal of ABCG2 mediated multidrug resistance in human HEK293 cells overexpressing ABCG2 assessed as change in ABCG2 protein expression level at 2.5 uM incubated for 48 hrs by Western blot analysis; assay type: functional, cell-based
[17] = test system: K562/A02; experiment: Reversal of ABCB1 mediated multidrug resistance in human K562/A02 cells overexpressing ABCB1 assessed as change in abcb1 mRNA expression level at 2.5 uM incubated for 72 hrs by real time RT-PCR analysis; assay type: functional, cell-based
[18] = test system: HEK293; experiment: Reversal of ABCG2 mediated multidrug resistance in human HEK293 cells overexpressing ABCG2 assessed as change in abcg2 mRNA expression level at 2.5 uM incubated for 48 hrs by real time RT-PCR analysis; assay type: functional, cell-based
[19] = target: ATP-dependent translocase ABCB1 (Homo sapiens, UniProt P08183); experiment: Inhibition of ABCB1 (unknown origin) ATPase activity assessed as decrease in luminescence by firefly luciferase reporter assay
[20] = target: T1, Broad substrate specificity ATP-binding cassette transporter ABCG2 (Homo sapiens, UniProt Q9UNQ0); experiment: Inhibition of ABCG2 (unknown origin) ATPase activity assessed as decrease in luminescence by firefly luciferase reporter assay
T1 sequence (Q9UNQ0 whole entry): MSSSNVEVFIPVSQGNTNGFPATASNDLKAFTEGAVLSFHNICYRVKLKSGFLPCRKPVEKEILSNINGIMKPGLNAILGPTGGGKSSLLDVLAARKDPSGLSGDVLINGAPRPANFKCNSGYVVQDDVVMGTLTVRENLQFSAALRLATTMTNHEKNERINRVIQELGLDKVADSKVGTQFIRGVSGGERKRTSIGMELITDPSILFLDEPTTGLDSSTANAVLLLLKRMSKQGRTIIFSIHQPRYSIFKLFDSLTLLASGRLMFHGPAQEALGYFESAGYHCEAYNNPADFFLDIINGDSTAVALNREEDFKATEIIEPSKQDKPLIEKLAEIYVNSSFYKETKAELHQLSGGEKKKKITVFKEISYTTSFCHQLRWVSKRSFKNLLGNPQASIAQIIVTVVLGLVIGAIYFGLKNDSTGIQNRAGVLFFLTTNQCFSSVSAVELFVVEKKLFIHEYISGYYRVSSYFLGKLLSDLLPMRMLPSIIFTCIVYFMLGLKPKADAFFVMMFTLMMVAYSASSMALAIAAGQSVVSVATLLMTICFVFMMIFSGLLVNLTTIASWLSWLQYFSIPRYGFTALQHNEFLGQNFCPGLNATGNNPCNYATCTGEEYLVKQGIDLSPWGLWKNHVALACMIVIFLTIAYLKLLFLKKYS

[21] = Stability in rat plasma assessed as parent compound remaining at 80 ug/ml and measured after 300 mins by LC-MS/MS analysis; assay type: ADME, cell-free; conditions: 5 h, at 80 µg/mL
[22] = Metabolic stability in rat liver microsomes assessed as half life at 80 ug/ml preincubated for 5 mins followed by NADPH addition and measured upto 120 mins by LC-MS/MS analysis; assay type: ADME, Microsome; conditions: dose 80 µg/ml, time < 125 min
[23] = Metabolic stability in rat liver microsomes assessed as intrinsic clearance at 80 ug/ml preincubated for 5 mins followed by NADPH addition and measured upto 120 mins by LC-MS/MS analysis; assay type: ADME, Microsome; conditions: dose 80 µg/ml, time < 125 min, read-out: CLH
[24] = AUCt in Sprague-Dawley rat at 5 mg/kg, iv by LC-MS/MS analysis; assay type: ADME, organism-based; set-up: dose 5 mg/kg, route iv; conditions: in vivo
[25] = AUC (0 to infinity) in Sprague-Dawley rat at 5 mg/kg, iv by LC-MS/MS analysis; assay type: ADME, organism-based; set-up: dose 5 mg/kg, route iv; conditions: in vivo
[26] = Volume of distribution at steady state in Sprague-Dawley rat at 5 mg/kg, iv by LC-MS/MS analysis; assay type: ADME, organism-based; conditions: in vivo, read-out: Vdss
[27] = Clearance in Sprague-Dawley rat at 5 mg/kg, iv by LC-MS/MS analysis; assay type: ADME, organism-based; conditions: in vivo
[28] = Half life in Sprague-Dawley rat at 5 mg/kg, iv by LC-MS/MS analysis; assay type: ADME, organism-based; conditions: in vivo
[29] = Toxicity in iv dosed BALB/c mouse xenografted with human K562/A02 cells overexpressing ABCB1 assessed as lethality; assay type: organism-based; conditions: in vivo
[30] = test system: K562; experiment: Antitumor activity against human K562 cells xenografted in BALB/c mouse assessed as tumor growth inhibition at 40 mg/kg, iv QD for 14 days in presence of adriamycin; assay type: functional, organism-based; conditions: time 14.0 day
[31] = test system: K562/A02; experiment: Antitumor activity against human K562/A02 cells overexpressing ABCB1 xenografted in BALB/c mouse assessed as tumor growth inhibition at 40 mg/kg, iv QD for 14 days in presence of adriamycin; assay type: functional, organism-based; conditions: time 14.0 day
[32] = Toxicity in BALB/c mouse xenografted with human K562 cells assessed as body weight loss at 10 to 40 mg/kg, iv QD for 14 days in presence of adriamycin; assay type: organism-based; conditions: in vivo, 336 h, dose 10-40 mg/kg, time 14 day
[33] = Toxicity in BALB/c mouse xenografted with human K562 cells assessed as body weight loss at 20 mg/kg, iv QD for 14 days; assay type: organism-based; conditions: in vivo, 336 h, time 14 day
[34] = Toxicity in BALB/c mouse xenografted with human K562/A02 cells overexpressing ABCB1 assessed as body weight loss at 10 to 40 mg/kg, iv QD for 14 days in presence of adriamycin; assay type: organism-based; conditions: in vivo, 336 h, dose 10-40 mg/kg, time 14 day
[35] = Toxicity in BALB/c mouse xenografted with human K562/A02 cells overexpressing ABCB1 assessed as body weight loss at 20 mg/kg, iv QD for 14 days; assay type: organism-based; conditions: in vivo, 336 h, time 14 day

Chain of ATP-dependent translocase ABCB1 (P08183 whole entry): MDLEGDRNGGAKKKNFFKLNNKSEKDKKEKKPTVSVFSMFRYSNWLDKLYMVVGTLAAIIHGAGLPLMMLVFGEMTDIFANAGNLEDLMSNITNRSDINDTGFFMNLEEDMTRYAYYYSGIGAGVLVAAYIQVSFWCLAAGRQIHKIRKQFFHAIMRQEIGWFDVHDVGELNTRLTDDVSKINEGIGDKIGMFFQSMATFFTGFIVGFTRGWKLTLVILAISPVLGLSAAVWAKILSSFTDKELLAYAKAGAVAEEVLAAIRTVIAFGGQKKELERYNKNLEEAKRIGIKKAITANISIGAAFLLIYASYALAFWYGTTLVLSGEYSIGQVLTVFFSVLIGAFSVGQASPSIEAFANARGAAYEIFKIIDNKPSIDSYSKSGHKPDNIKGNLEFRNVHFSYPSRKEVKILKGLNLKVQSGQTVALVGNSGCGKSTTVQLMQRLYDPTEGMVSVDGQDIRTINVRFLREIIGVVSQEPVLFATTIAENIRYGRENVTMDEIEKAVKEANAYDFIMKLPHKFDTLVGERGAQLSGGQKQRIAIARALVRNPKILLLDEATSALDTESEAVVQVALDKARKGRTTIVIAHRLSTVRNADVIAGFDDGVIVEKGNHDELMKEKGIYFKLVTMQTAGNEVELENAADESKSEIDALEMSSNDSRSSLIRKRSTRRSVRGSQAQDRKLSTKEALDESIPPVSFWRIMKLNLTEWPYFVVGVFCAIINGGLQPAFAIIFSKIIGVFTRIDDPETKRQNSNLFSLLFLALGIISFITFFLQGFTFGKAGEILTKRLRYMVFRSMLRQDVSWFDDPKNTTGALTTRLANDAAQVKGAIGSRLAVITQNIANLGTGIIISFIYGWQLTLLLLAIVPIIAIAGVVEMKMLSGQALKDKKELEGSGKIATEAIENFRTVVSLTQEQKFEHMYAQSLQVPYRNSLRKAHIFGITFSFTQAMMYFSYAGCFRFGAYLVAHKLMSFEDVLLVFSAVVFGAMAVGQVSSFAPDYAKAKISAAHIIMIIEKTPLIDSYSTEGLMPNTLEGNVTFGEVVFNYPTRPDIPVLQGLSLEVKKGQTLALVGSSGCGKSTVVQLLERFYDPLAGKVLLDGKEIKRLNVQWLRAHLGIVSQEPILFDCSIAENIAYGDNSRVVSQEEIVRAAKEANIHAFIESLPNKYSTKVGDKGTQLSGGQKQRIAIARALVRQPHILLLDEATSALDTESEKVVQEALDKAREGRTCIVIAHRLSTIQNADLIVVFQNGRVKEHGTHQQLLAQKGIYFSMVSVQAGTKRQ

Q: For `O=C(CN1CCN(c2ccc(OC(F)(F)F)cc2)CC1)Nc1ccc(-c2nc3ccccn3c2CN2CCN(c3ccccc3)CC2)cc1`, which IC50 at 72 h [1] is on record?
A: Its IC50 at 72 h is > 100 µM.

Q: What about the IC50 at 72 h [2] of the same compound?
A: Its IC50 at 72 h is > 100 µM.

Q: What about the Activity [3] of the same compound?
A: Its Activity is “inactive”.

Q: And the Activity [4]?
A: The Activity was “Active”.

Q: And the Activity [5]?
A: Its Activity is <30%.

Q: And the IC50 at 72 h [6]?
A: Its IC50 at 72 h is 53.4 µM.

Q: And the IC50 at 72 h [7]?
A: The IC50 at 72 h was 67.7 µM.

Q: What about the Activity [8] of the same compound?
A: The Activity was “inactive”.

Q: And the Activity [9]?
A: The Activity was “Active”.

Q: And the Activity [10]?
A: Its Activity is “Active”.

Q: And the Activity [11]?
A: The Activity was “Active”.

Q: What about the Activity [12] of the same compound?
A: Its Activity is 56%.

Q: And the Activity [13]?
A: The Activity was “Active”.

Q: And the Activity [14]?
A: Its Activity is “Active”.

Q: What about the Activity [15] of the same compound?
A: The Activity was “inactive”.

Q: What about the Activity [16] of the same compound?
A: Its Activity is “inactive”.

Q: And the Activity [17]?
A: The Activity was “inactive”.

Q: What about the Activity [18] of the same compound?
A: The Activity was “inactive”.

Q: And the “inhibition (INH)” value [19]?
A: Its value is “Active”.

Q: What about the “inhibition (INH)” value [20] of the same compound?
A: Its value is “Active”.

Q: And the Stability [21]?
A: The Stability was “Stable”.

Q: And the half-life at 80 ug/ml [22]?
A: Its half-life at 80 ug/ml is 1.02 h.

Q: What about the microsomal CLint at 80 ug/ml [23] of the same compound?
A: Its microsomal CLint at 80 ug/ml is 2.27 µL/min/mg.

Q: What about the AUC(0-t) [24] of the same compound?
A: The AUC(0-t) was 651 ng·h/mL.

Q: What about the AUC(0-inf) [25] of the same compound?
A: Its AUC(0-inf) is 676 ng·h/mL.

Q: What about the Vd [26] of the same compound?
A: Its Vd is 9.41 L/kg.

Q: And the clearance [27]?
A: The clearance was 130 mL/min/kg.

Q: What about the half-life [28] of the same compound?
A: The half-life was 2.25 h.

Q: And the LD50 [29]?
A: The LD50 was > 200 mg/kg/day.

Q: What about the Activity [30] of the same compound?
A: The Activity was “inactive”.

Q: What about the Activity [31] of the same compound?
A: Its Activity is “Active”.

Q: And the Activity [32]?
A: The Activity was “Non-Toxic”.

Q: What about the Activity [33] of the same compound?
A: Its Activity is “Non-Toxic”.

Q: What about the Activity [34] of the same compound?
A: Its Activity is “Non-Toxic”.

Q: And the Activity [35]?
A: The Activity was “Non-Toxic”.
